Source: patent publication US20040063742A1 (priority 2001, published 2004)

Legend:
[1] = target: T1, 3H-dopamine uptake in striatal synaptosomes (Rattus norvegicus, UniProt P23977); assay: In vitro inhibition of 3H-dopamine (3H-DA) uptake in striatal synaptosomes; assay type: biochemical
T1 construct: Corpi striati from male Wistar rats (150-200 g) are homogenised; from tissue; host or cells: rat corpus striatum (male Wistar), P2 synaptosomal pellet
Protocol: In vitro Inhibiti n of ^3H-dopamin (3H-DA) Uptake in Striatal Synaptosom s
In this test, the ability of a compound enhancing the dopamine activity (below: the test compound) to inhibit the uptake of ^3H-dopamine in striatal synaptosomes is assessed.
Tissue preparations: Preparations are performed at 0-4° C. unless otherwise indicated. Corpi striati from male Wistar rats (150-200 g) are homogenised for 5-10 sec in 100 volumes of ice-cold 0.32M sucrose containing 1 mM pargyline using an Ultra-Turrax homogenizer. Monoamine oxidase activity will be inhibited in the presence of pargyline. The homogenate is centrifuged at 1000×g for 10 min. The resulting supernatant is then centrifuged at 27,000×g for 50 min and the supernatant is discarded. […]
Assay: Aliquots of 4.0 ml tissue suspension are added to 100 μl of test solution and 100 μl of ^3H-DA (1 nM, final concentration), mixed and incubated for 25 min at 37° C. Non-specific uptake is determined using benztropine (10 μM, final concentration). […] The amount of radioactivity on the filters is determined by conventional liquid scintillation counting. Specific uptake is calculated as the difference between total uptake and non-specific uptake. […]

dopamine transporter = target: T2, dopamine transporter (Rattus norvegicus, UniProt P23977); assay: Inhibition of in vitro [3H]WIN 35428 binding to the dopamine transporter in rat striatal synaptosomes; conditions: [3H]WIN 35428 1 nM
T2 construct: Striata from male Wistar rats (150-200 g) are homogenized; from tissue; host or cells: rat striatum (male Wistar), membrane pellet
Protocol: Inhibition of In Vitro [^3H]WIN 35428 Binding to the Dopamine Transporter in Rat Striatal Synaptosomes
In this method the ability of test compounds to inhibit the binding of WIN 35428 to the dopamine transporter in vitro is assessed.
Tissue preparation: Striata from male Wistar rats (150-200 g) are homogenized for 5-10 sec in 10 ml NaH2PO4 (50 mM, pH 7.4) using an Ultra-Turrax homogenizer. The suspension is centrifuged at 27,000×g for 15 min. The supernatant is discarded and the pellet is resuspended in phosphate buffer (1000 ml per g of original tissue) and used for binding assays.
Binding assays: Aliquots of 0.5 ml tissue suspension are added to 0.025 ml of test solution and 0.025 ml of [^3H]WIN 35428 (1 nM, final concentration), mixed and incubated for 60 min at 2° C. Non-specific binding is determined using cocaine (30 μM, final concentration).
After incubation 5 ml of ice-cold buffer is added to the samples and poured directly onto Whatman GF/C glass fiber filters (for the [^3H]GBR 12935 assay the filters are presoaked in 0.1% PEI for at least 20 min) under suction and immediately washed with 5 ml ice-cold buffer. The amount of radioactivity on the filters is determined by conventional liquid scintillation counting using a Tri-carb liquid scintillation analyzer (model 1600CA; Packard, USA). […]

[2] = test system: dopaminergic neurons in dissociated cultures from rat E14 ventral mesencephali; assay: Survival of embryonic rat dopaminergic neurons; assay type: cell-based; conditions: TH-immunoreactive cells, 7 days in culture
Protocol: Survival of Embryonic Rat Dopaminergic Neurons
In this experiment the effect of a test compound on the survival of dopaminergic neurons in dissociated cultures established from rat E14 ventral mesencephali (VM) is assessed.
Embryonic rat brains (Wistar; E14) were isolated under sterile conditions placed in chilled Gey's balanced salt solution (GIBCO) with glucose (6.5 mg/ml).
The ventral mesencephali were dissected out, cut into small tissue pieces, placed in Neurobasal medium with B27 supplement and gently pressed through a 80 μm Nitex filter. The cells were counted using a hemocytometer and plated in a 6 well multi-dish at a density of approximately 2.0×10^6 cells/well. Culture dishes were pre-coated with poly-D-lysine.
After 1 hour, the medium was removed and fresh medium added (1.5 ml/well). […] Untreated cultures served as controls. The medium was changed every other day and antimitotics and antibiotics were not used at any stage.
After 7 days in culture, cultures were then immunostained for tyrosine hydroxylase (TH). Briefly, the cells were washed in 0.05M tris-buffered saline (TBS, pH 7.4) containing 1% Triton X-100 for 3×15 minutes and incubated with 10% foetal bovine serum (FBS, Life Technologies) in TBS for 30 minutes. The cells were then incubated for 24 hours at 4° C. with monoclonal mouse anti-TH antibody (Boehringer Mannheim) diluted 1:600 in TBS with 10% FBS. After rinsing in TBS with 1% Triton X-100 for 3×15 minutes, cells were incubated for 60 minutes with biotinylated anti-mouse IgG antibody (Amersham) diluted 1:200 in TBS with 10% FBS. The cells were then washed in TBS with 1% Triton X-100 (3×15 minutes) and incubated for 60 minutes with streptavidine-peroxidase (Dako) diluted 1:200 in TBS with 10% FBS. After washing in TBS (3×15 minutes), bound antibody was visualised by treatment with 0.05% 3,3-diaminobenzidine (Sigma) in TBS containing 0.01% H2O2. TH-immunoreactive (ir) cells were counted manually.

T2 sequence (P23977 whole entry): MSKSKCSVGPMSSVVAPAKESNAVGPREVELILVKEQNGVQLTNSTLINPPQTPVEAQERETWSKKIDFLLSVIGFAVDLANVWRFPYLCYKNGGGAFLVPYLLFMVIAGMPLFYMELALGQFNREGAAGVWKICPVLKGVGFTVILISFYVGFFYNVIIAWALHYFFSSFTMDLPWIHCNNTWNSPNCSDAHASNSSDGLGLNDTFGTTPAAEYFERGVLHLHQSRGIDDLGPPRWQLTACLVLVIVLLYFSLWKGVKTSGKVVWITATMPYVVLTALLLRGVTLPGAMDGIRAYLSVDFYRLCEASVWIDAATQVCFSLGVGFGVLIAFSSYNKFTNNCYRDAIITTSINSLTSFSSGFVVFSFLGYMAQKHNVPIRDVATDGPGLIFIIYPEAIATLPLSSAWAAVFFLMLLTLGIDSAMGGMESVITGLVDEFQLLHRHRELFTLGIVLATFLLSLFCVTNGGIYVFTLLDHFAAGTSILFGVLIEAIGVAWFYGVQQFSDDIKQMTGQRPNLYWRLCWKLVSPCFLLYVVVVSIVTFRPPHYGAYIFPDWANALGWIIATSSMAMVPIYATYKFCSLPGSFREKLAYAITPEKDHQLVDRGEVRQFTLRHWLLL
T1 sequence (P23977 whole entry): as above

With `O=C1Nc2c(cc(-c3ccc(Cl)cc3)c3c2CCCC3)C1=NO` [compound a, 5-(4-Chlorophenyl)-6,7,8,9-tetrahydro-1-H-pyrrolo[3.2-h]naphthalene-2,3-dione-3-oxime] the IC50 [1] was 0.034 µM, the IC50 (dopamine transporter) was 0.14 µM and the “Inhibition of cell loss” value ([2]; 0.3 μM compound a) was 74%. The “Inhibition of cell loss” value ([2]; 1.0 μM compound a) was 62% and the “Inhibition of cell loss” value ([2]; 3.0 μM compound a) was 17%.
